The structures appear in SMILES notation. “And” between values parts separate entries of the source, which are not always exact repeats. Identical values can stand only once.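 Tested at 5 concentrations; 48 h exposure; 96-well plates; endpoints linearly interpolated, else capped at highest concentration. Abbreviation: GI50, concentration required for 50% inhibition of growth.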 The source made the active and inactive calls. Cut-off read from the data, not from the text of the source: active = GI50 up to about 1.1 µM and inactive = higher.

Among the test systems are SF-295; SR; OVCAR-3; MDA-MB-231; RPMI-8226; NCI-H460; KM12; HCT-116; NCI-H23; Malme-3M; SW-620; UACC-257; U-251; MCF7; SK-MEL-28; ACHN; HOP-62; HCT-15; HL-60; LOX IMVI.
What all share (assay): inhibition of tumour cell growth, NCI panel, 48 h

For the compound `CC(=O)OCC1OC(n2c(C)c(C)cc(C#N)c2=S)C(OC(C)=O)C(OC(C)=O)C1OC(C)=O` (stereo not drawn), the GI50 in the assay on SF-295, with SR, in the assay on OVCAR-3, in the assay on MDA-MB-231, with RPMI-8226 and in the assay on NCI-H460 was > 100 µM (inactive) each time. Besides, the GI50 with KM12, in the assay with HCT-116, in the assay with NCI-H23, in the assay with Malme-3M, with SW-620 and with UACC-257 was > 100 µM (inactive) each time. Moreover, the GI50 is > 100 µM (inactive) in the assay with U-251; > 100 µM (inactive) with MCF7; > 100 µM (inactive) in the assay on SK-MEL-28; > 100 µM (inactive) in the assay with ACHN; > 100 µM (inactive) and 91 µM (inactive) with HOP-62; greater than 100 µM with HCT-15. Moreover, the GI50 in the assay with HL-60 and in the assay with LOX IMVI was > 100 µM (inactive) in each case.
As to `O=C(Nc1nc(C23CC4CC(CC(C4)C2)C3)cs1)c1cc2cc(Cl)ccc2oc1=O`, the GI50 in the assay with SF-295, with SR, in the assay with OVCAR-3, in the assay with MDA-MB-231, in the assay with RPMI-8226 and in the assay with NCI-H460 was > 100 µM (inactive) each time. The GI50 in the assay on KM12, in the assay on HCT-116, in the assay with NCI-H23, in the assay with Malme-3M, in the assay with SW-620 and in the assay with UACC-257 was > 100 µM (inactive) each time. Also, the GI50 was > 100 µM (inactive) in the assay with U-251; > 100 µM (inactive) in the assay with MCF7; > 100 µM (inactive) in the assay on SK-MEL-28; > 100 µM (inactive) in the assay with ACHN; > 100 µM (inactive) in the assay with HOP-62; greater than 100 µM in the assay with HCT-15. Moreover, the GI50 in the assay with HL-60 and with LOX IMVI was > 100 µM (inactive) throughout.
For the compound `O=S(=O)(/C=C/C=C/S(=O)(=O)c1ccccc1)c1ccccc1`, the GI50 was 10.4 µM (inactive) in the assay on SF-295; 0.285 µM (active) in the assay on SR; 0.721 µM (active) with OVCAR-3; 1.56 µM (inactive) with MDA-MB-231; 0.419 µM (active) in the assay with RPMI-8226; 6.1 µM (inactive) with NCI-H460. Further, the GI50 in the assay with KM12 was 2.29 µM (inactive); in the assay with HCT-116, 1.27 µM (inactive); with NCI-H23, 1.35 µM (inactive); with Malme-3M, 1.17 µM (inactive); in the assay with SW-620, 0.172 µM (active); with UACC-257, 0.733 µM (active). Besides, the GI50 in the assay with U-251 was 4.12 µM (inactive); in the assay on MCF7, 0.845 µM (active); with SK-MEL-28 it was 1.32 µM (inactive); with ACHN, 0.769 µM (active); in the assay with HOP-62 it was 6.76 µM (inactive); in the assay with HCT-15 it was 1.2 µM. Further, the GI50 in the assay on HL-60 is 0.256 µM (active); with LOX IMVI, 0.713 µM (active).
Take `O=c1[nH]/c(=C/c2ccc(OCc3ccccc3)cn2)c(=O)[nH]/c1=C/c1ccc(O)cc1`: the GI50 was 8.85 µM (inactive) in the assay with SF-295; 1.4 µM (inactive) in the assay on SR; 1.27 µM (inactive) in the assay on OVCAR-3; 1.6 µM (inactive) in the assay with MDA-MB-231; 0.766 µM (active) with RPMI-8226; 1.41 µM (inactive) in the assay on NCI-H460. Moreover, the GI50 in the assay on KM12 is 1.23 µM (inactive); with HCT-116, 1.08 µM (active); in the assay on NCI-H23 it was 1.16 µM (inactive); in the assay on Malme-3M, 2.34 µM (inactive); in the assay on SW-620, 0.537 µM (active); in the assay with UACC-257, 2.56 µM (inactive). Further, the GI50 in the assay on U-251 was 0.719 µM (active); in the assay with MCF7, 1 µM (active); in the assay with SK-MEL-28 it was 1.79 µM (inactive); in the assay with ACHN, 1.67 µM (inactive); in the assay with HOP-62 it was 1.88 µM (inactive); in the assay on HCT-15 it was 0.501 µM. Besides, the GI50 in the assay with HL-60 was 0.298 µM (active); in the assay with LOX IMVI, 0.507 µM (active).
With `O=C(O)CN1C(=O)CN=C(c2ccccn2)c2cc(Cl)ccc21`, the GI50 in the assay with SF-295 was > 100 µM (inactive); in the assay on SR, 0.547 µM (active); in the assay on OVCAR-3, > 100 µM (inactive); in the assay with MDA-MB-231, > 100 µM (inactive); with RPMI-8226 it was > 100 µM (inactive); in the assay on NCI-H460 it was > 100 µM (inactive). Moreover, the GI50 with KM12, in the assay with HCT-116, in the assay with Malme-3M, with SW-620, with UACC-257 and in the assay with U-251 was > 100 µM (inactive) throughout. Also, the GI50 in the assay on MCF7 is > 100 µM (inactive); in the assay on SK-MEL-28, > 100 µM (inactive); in the assay on ACHN it was > 100 µM (inactive); in the assay with HOP-62, > 100 µM (inactive); in the assay with HCT-15, greater than 100 µM; in the assay with HL-60, 4.31 µM (inactive). Besides, the GI50 in the assay with LOX IMVI was > 100 µM (inactive).
As for `Oc1ccc2c3c1OC1c4[nH]ncc4C[C@H]4[C@@H](C2)N(CC2CC2)CC[C@]314` (stereo partly drawn), the GI50 in the assay on SF-295, with SR, in the assay with OVCAR-3, in the assay with MDA-MB-231, in the assay on RPMI-8226 and in the assay on NCI-H460 was > 100 µM (inactive) throughout. The GI50 in the assay on KM12, in the assay on HCT-116, with NCI-H23, with Malme-3M, in the assay with UACC-257 and in the assay on U-251 was > 100 µM (inactive) each time. The GI50 in the assay with MCF7 was > 100 µM (inactive); in the assay with SK-MEL-28, > 100 µM (inactive); in the assay with ACHN, > 100 µM (inactive); with HOP-62, > 100 µM (inactive); with HCT-15, greater than 100 µM; with HL-60 it was > 100 µM (inactive). In addition, in the assay with LOX IMVI, the GI50 is > 100 µM (inactive).
Regarding `O=C1c2ccccc2CC12Cc1ccc3c(c1C2=O)CCCC3` (stereo not drawn), the GI50 is 5.96 µM (inactive) with SF-295; 2.87 µM (inactive) in the assay on SR; 12.6 µM (inactive) in the assay on OVCAR-3; 0.948 µM (active) in the assay with MDA-MB-231; 18.2 µM (inactive) with RPMI-8226; 3.91 µM (inactive) in the assay with NCI-H460. Further, the GI50 in the assay with KM12 was 41.4 µM (inactive); in the assay on HCT-116, 3.57 µM (inactive); in the assay on Malme-3M, 82.2 µM (inactive); in the assay with SW-620 it was 6.32 µM (inactive); in the assay with UACC-257, > 100 µM (inactive); with U-251, 35.2 µM (inactive). Besides, the GI50 in the assay on MCF7 was > 100 µM (inactive); in the assay with SK-MEL-28 it was 47.2 µM (inactive); with ACHN, 7.83 µM (inactive); with HOP-62 it was 7.74 µM (inactive); with HCT-15, 5.13 µM; in the assay with HL-60, 16.8 µM (inactive). For the same compound, in the assay with LOX IMVI, the GI50 was 19.9 µM (inactive).
As for `N#C/C=C\c1ccc(-c2cc(C(F)(F)F)cc(C(F)(F)F)c2)o1`, the GI50 in the assay on SF-295 was 19.4 µM (inactive); in the assay on SR, 19.3 µM (inactive); in the assay on OVCAR-3, > 100 µM (inactive); with MDA-MB-231, 36.8 µM (inactive); with RPMI-8226, > 100 µM (inactive); with NCI-H460, 86.3 µM (inactive). For the same compound, the GI50 is 49 µM (inactive) in the assay with KM12; 35.4 µM (inactive) in the assay with HCT-116; 13.3 µM (inactive) in the assay on NCI-H23; 64.4 µM (inactive) in the assay on Malme-3M; 49.7 µM (inactive) in the assay on SW-620; > 100 µM (inactive) with UACC-257. The GI50 in the assay on U-251 is 14.4 µM (inactive); with MCF7 it was 71.8 µM (inactive); in the assay on SK-MEL-28, 45.3 µM (inactive); with ACHN, > 100 µM (inactive); in the assay with HOP-62 it was 21.1 µM (inactive); in the assay on HL-60 it was 17.7 µM (inactive). In the assay with LOX IMVI, the GI50 is 38.7 µM (inactive).
Take `COc1ccc(/C=c2\s/c(=C3/SC(=S)N(c4ccccc4)C3=O)n(-c3ccccc3)c2=O)cc1`: the GI50 is 35 µM (inactive) in the assay with SF-295; 15.3 µM (inactive) in the assay with SR; > 100 µM (inactive) in the assay on OVCAR-3; 49.3 µM (inactive) in the assay with MDA-MB-231; > 100 µM (inactive) with RPMI-8226; 12.8 µM (inactive) with NCI-H460. The GI50 with KM12 is > 100 µM (inactive); in the assay on HCT-116, > 100 µM (inactive); in the assay with NCI-H23, 26.9 µM (inactive); in the assay with Malme-3M it was > 100 µM (inactive); in the assay with SW-620, > 100 µM (inactive); in the assay on U-251 it was 19.6 µM (inactive). The GI50 with MCF7 is 0.264 µM (active); with SK-MEL-28, > 100 µM (inactive); in the assay on ACHN, 13.6 µM (inactive); in the assay with HOP-62, 21.6 µM (inactive); with HCT-15 it was greater than 100 µM; in the assay with HL-60, > 100 µM (inactive). The GI50 in the assay with LOX IMVI was > 100 µM (inactive).
On to `N#C/C(=C\c1ccc(F)cc1)c1nc2ccccc2c(=O)[nH]1`, for which the GI50 in the assay with SF-295 is > 100 µM (inactive); in the assay with SR, > 100 µM (inactive); in the assay on MDA-MB-231 it was 48.3 µM (inactive); in the assay on RPMI-8226 it was > 100 µM (inactive); in the assay on NCI-H460 it was > 100 µM (inactive); with KM12, 3.91 µM (inactive). The GI50 in the assay on HCT-116 is > 100 µM (inactive); in the assay on Malme-3M it was > 100 µM (inactive); in the assay with SW-620 it was > 100 µM (inactive); in the assay with UACC-257, > 100 µM (inactive); in the assay with U-251, 70.6 µM (inactive); in the assay with MCF7, > 100 µM (inactive). For the same compound, the GI50 in the assay with SK-MEL-28 was > 100 µM (inactive); in the assay on ACHN, > 100 µM (inactive); with HOP-62, 47 µM (inactive); with HCT-15 it was greater than 100 µM; in the assay on HL-60, > 100 µM (inactive); in the assay on LOX IMVI it was > 100 µM (inactive).
